Results published in US20250368638A1, “BICYCLIC INHIBITORS OF NICOTINAMIDE […], COMPOSITIONS AND USES THEREOF” (President and Fellows of Harvard College, priority 2021, published 2025).

Columns and labels:
[1] = system: K562 (ATCC) cells; experiment: Cellular potency: 1-MNA levels in K562 cells after compound incubation; type: cell-based; details: Homo sapiens, 24 h incubation
Description: Cellular potency was measured in K562 (ATCC) cells via measuring (1-methyl nicotinamide) 1-MNA levels after compound incubation at varying concentrations overnight. Cells were plated at 1 million per well and were incubated for 24 h with compounds at indicated concentrations. Cells were collected by pipetting and extracted with 200 ul acetonitrile containing internal deuterated standard 10 ng/ml d4-1-MNA. Samples were analyzed on an Agilent 64-60 Triple Quad LC/MS with Agilent 1290 Infinity HPLC using a Restek Allure 5 um PPFP column 150 mm×2.1. The mobile phase A was 2.5 mM ammonium formate in water, and mobile phase B was methanol with 0.1% formic acid, delivered at 0.25 mL/min. The capillary voltage was set to 2400V and the nozzle at 300V. The drying gas temperature was 240° C., the drying gas flow rate was 4 L/min, and the nebulizer pressure was 40 psi. The mass spectrometer was run in multiple reaction monitoring mode. Mass transitions were m/z 137.1 à 94.1 for 1-MNA and m/z 141.1 à 98.1 for d4-MNA.

[2] = Metabolic stability in pooled male mouse liver microsomes
Description: A master solution was prepared according to the following table.
40 μL of 10 mM NADPH solution was added to each well. The final concentrations of NADPH was 1 mM. The mixture was pre-warmed at 37° C. for 5 minutes. The negative control samples were prepared by replacing NADPH solutions with 40 μL of ultra-pure H2O. The negative control was used to exclude the misleading factor that resulted from instability of chemical itself. Samples with NADPH were prepared in duplicate. Negative controls were prepared in singlet.
The reaction was started with the addition of 4 μL of 200 μM control compound or test compound solutions. […] Samples were centrifuged at 3, 220 g for 40 minutes. Aliquot of 90 μL of the supernatant was mixed with 90 μL of ultra-pure H2O and then used for LC-MS/MS analysis.
For metabolite standard samples: 1 μL of 400 μM working solution was added to 89 μL master solution following by adding 400 μL of cold acetonitrile with internal standard (IS) (100 nM alprazolam, 200 nM Imipramine, 200 nM labetalol and 2 μM ketoprofen). Then 10 μL of 10 mM NADPH solution or ultra-pure H2O was added to the mixture. Samples were centrifuged at 3,220 g for 40 minutes to precipitate protein. Aliquots of 90 μL supernatant diluted by 90 μL of water was used for LC-MS/MS analysis.

[3] = system: Salmonella typhimurium (TA98, TA1535, TA1537) and Escherichia coli WP2uvrA (pKM101); experiment: Mini-Ames test; type: cell-based
Description: 1. The study evaluated the mutagenic potential of the test article, (or its metabolites) by measuring its ability to induce reverse mutations at selected loci of bacteria Salmonella typhimurium (TA98, TA1535, TA1537) and Escherichia coli WP2uvrA (pKM101) in both the presence and absence of microsomal enzymes.
2. […] Top agar containing 0.6% (w/v) agar and 0.5% (w/v) sodium chloride were supplemented with 0.5 mM D-biotin and 0.5 mM L-histidine for Salmonella typhimurium strains used or 0.5 mM D-biotin and 0.5 mM L-tryptophan for Escherichia coli WP2uvrA (pKM101) used.
3. In the Mini-Ames test, 4 strains were selected for testing: Salmonella typhimurium (TA98, TA1535.TA1537) and Escherichia coli WP2uvrA (pKM101). The test strains were prepared from frozen working stocks. 10 μL frozen working stock adding in 5 mL nutrient broth were incubated with 220 rpm shaking at 37±2° C. for 10 hours until an optical density (at 650 nm) of 0.6-0.8 were reached. The overnight culture were used for the mutagenicity test.
4. The test article was supplied as the powder and maintained at −20° C. until use. Stock solutions were prepared at 50 mg/mL in DMSO (Table 11A). […]
7. […] If the precipitation dose interfere with the scoring (count the number of the revertants), the lowest precipitating dose should be used as the top dose scored. […]
Background lawns are measured microscopically using a stereoscope. […]

[4] = male, mouse, pooled liver microsomes

For `C[C@@H]1Cc2cc(C(N)=O)cnc2N1` [Compound 11, (2R)-2-methyl-2,3-dihydro-1H-pyrrolo[2,3-b]pyridine-5-carboxamide], the IC50 [1] was 38 nM, the “Predicted hepatic CL” value ([2]; Mouse liver microsomes) was under 18.76 mL/min/kg and the “Remaining (%) at 60 minutes” value ([2]; Mouse liver microsomes) was 93.24%. For the same compound, the CLint scaled at 2 μM [2, 4] was under 23.7 mL/min/kg, the half-life at 2 μM [2, 4] was over 256 min and the microsomal CLint at 2 μM [2, 4] was under 5.42 µL/min/mg. The “F value (Mini Ames)” value ([3]; all tested concentrations, every strain, with and without an S9 Fraction) was “less than 2” and the “Mutagenicity (Mini-Ames)” value ([3]; various bacteria strains, with and without S9) was “not mutagenic”.
